Where a name gives a salt, the structure may show the parent alone.

This test concerns MTT (mouse pheochromocytoma). In words: IC50 of cell viability (ATP content). To be noted: (24 or 48 h). The essentials: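 The IC50 was fitted with a four-parameter logistic equation to normalised CellTiter-Glo ATP luminescence from MTT mouse pheochromocytoma cells. These cells, in white 1536-well plates, had been treated for 24 or 48 hrs with library compounds at 8 final concentrations between 0.5 nM and 46 µM, and luminescence was read after 15 minutes. Positive-control wells served as 100% and DMSO wells as 0%.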
Turning to `CC(C)(C#N)c1cc(Cn2cncn2)cc(C(C)(C)C#N)c1` [Anastrozole], the “IC50 of cell viability” value is more than 46 µM.

Turning to `C/C=C/c1ccc(OC)cc1` [Anethole], the “IC50 of cell viability” value was more than 46 µM.

Consider `CNC(=O)Oc1ccccc1C(=O)Nc1ccccc1` [Anilamate], for which the “IC50 of cell viability” value was more than 46 µM.

Turning to `Nc1ccccc1.O=[N+]([O-])O` [Anilinium nitrate], the “IC50 of cell viability” value is more than 46 µM.

Regarding `CCCC(CCC)C(=O)OC1C[C@H]2CC[C@@H](C1)[N+]2(C)C` (stereo partly specified) [Anisotropine methyl bromide], the “IC50 of cell viability” value is more than 46 µM.

Turning to `C1C\N=C(\CN(CC2=CC=CC=C2)C3=CC=CC=C3)N1` [Antazoline hydrochloride], the “IC50 of cell viability” value is more than 46 µM.

For the compound `CCCC(=O)O[C@@]1([C@@H](C)C[C@H]2[C@@H]3CCC\4=C\C(=O)\C=C/[C@@]4(C)[C@@]3(F)[C@H](O)C[C@]12C)C(=O)COC(=O)CC` [Antebate], the “IC50 of cell viability” value is more than 46 µM.

Consider `O=C1c2c(O)cccc2Cc2cccc(O)c21` [Anthralin], for which the “IC50 of cell viability” value was more than 46 µM.

With `O=C1c2ccccc2C(=O)c2ccccc21` [Anthraquinone], the “IC50 of cell viability” value is more than 46 µM.

As to `CC1=NN=C2C\N=C(C3=CC=CC=C3Cl)/C4=C(SC(=C4)CCC(=O)N5CCOCC5)[N]12` [Apafant], the “IC50 of cell viability” value was more than 46 µM.

On to `CN[C@H]1[C@H](O[C@@H]2O[C@@H](CO)[C@H](N)[C@H](O)[C@@H]2O)O[C@H]2C[C@@H](N)[C@@H](O[C@H]3[C@H](O)[C@H](O)[C@H](N)C[C@@H]3N)O[C@@H]2[C@H]1O` [Apramycin], for which the “IC50 of cell viability” value is more than 46 µM.

As to `C[C@@H](O[C@@H]1OCCN(Cc2nc(=O)[nH][nH]2)[C@@H]1c1ccc(F)cc1)c1cc(C(F)(F)F)cc(C(F)(F)F)c1` [Aprepitant], the “IC50 of cell viability” value was more than 46 µM.

For the compound `COC(=O)C1=C(C)NC(C)=C(C(=O)OCC(C)=O)C1c1ccccc1[N+](=O)[O-]` (stereo unspecified) [Aranidipine], the “IC50 of cell viability” value is more than 46 µM.

As to `N=C(N)NCCC[C@H](NC(=O)[C@@H]1CCCN1C(=O)[C@@H]1CSSC[C@H](N)C(=O)N[C@@H](Cc2ccc(O)cc2)C(=O)N[C@@H](Cc2ccccc2)C(=O)N[C@@H](CCC(N)=O)C(=O)N[C@@H](CC(N)=O)C(=O)N1)C(=O)NCC(N)=O` [Argipressin acetate], the “IC50 of cell viability” value is more than 46 µM.

For `Nc1ccc([As](=O)(O)O)cc1` [Arsanilic acid], the “IC50 of cell viability” value was more than 46 µM.

Consider `CO[C@H]1O[C@@H]2O[C@@]3(C)CC[C@H]4[C@H](C)CC[C@@H]([C@H]1C)[C@@]24OO3` [Artemetero], for which the “IC50 of cell viability” value was more than 46 µM.

With `CCCN[C@@H](C)C(=O)Nc1c(C)csc1C(=O)OC` [Articaine hydrochloride], the “IC50 of cell viability” value was more than 46 µM.

For `CCCCCCCCCCCCCCCC(=O)OCC(O)C1OC(=O)C(O)=C1O` (stereo unspecified) [Ascorbyl palmitate], the “IC50 of cell viability” value is more than 46 µM.

With `CN1C[C@@H]2c3ccccc3Oc3ccc(Cl)cc3[C@H]2C1` [Asenapine], the “IC50 of cell viability” value was more than 46 µM.

As to `COC(=O)[C@H](Cc1ccccc1)NC(=O)[C@@H](N)CC(=O)O` [Aspartame], the “IC50 of cell viability” value was more than 46 µM.

For the compound `O=C(Nc1ccc([S+](=O)([O-])N2CCOCC2)cc1)c1cc(Cl)ccc1N[S+](=O)([O-])c1ccc(Cl)s1` [Ataciguat], the “IC50 of cell viability” value was more than 46 µM.

On to `COC(=O)N[C@H](C(=O)N[C@@H](Cc1ccccc1)[C@@H](O)CN(Cc1ccc(-c2ccccn2)cc1)NC(=O)[C@@H](NC(=O)OC)C(C)(C)C)C(C)(C)C` [Atazanavir], for which the “IC50 of cell viability” value was more than 46 µM.

Turning to `CCC1(c2cnc[nH]2)Cc2ccccc2C1` [Atipamezole Hydrochloride], the “IC50 of cell viability” value is more than 46 µM.

Regarding `CCC1(c2cnc[nH]2)Cc2ccccc2C1` [Atipamezole], the “IC50 of cell viability” value is more than 46 µM.

On to `CCOc1ccc(C[C@H]2NC(=O)CCSSC[C@@H](C(=O)N3CCC[C@H]3C(=O)N[C@@H](CCCN)C(=O)NCC(N)=O)NC(=O)[C@H](CC(N)=O)NC(=O)[C@H]([C@@H](C)O)NC(=O)[C@H]([C@@H](C)CC)NC2=O)cc1` [Atosiban], for which the “IC50 of cell viability” value is more than 46 µM.

On to `O\C1=C(/C2CCC(CC2)C3=CC=C(Cl)C=C3)C(=O)C4=C(C=CC=C4)C1=O` (stereo unspecified) [Atovaquone], for which the “IC50 of cell viability” value is more than 46 µM.

On to `COc1ccc(C[C@@H]2c3cc(OC)c(OC)cc3CC[N@@+]2(C)CCC(=O)OCCCCCOC(=O)CC[N@+]2(C)CCc3cc(OC)c(OC)cc3[C@H]2Cc2ccc(OC)c(OC)c2)cc1OC.O=S(=O)([O-])c1ccccc1.O=S(=O)([O-])c1ccccc1` [Atracurium besylate], for which the “IC50 of cell viability” value is more than 46 µM.

Take `C[N@+]1([O-])[C@H]2CC[C@H]1C[C@H](OC(=O)[C@@H](CO)c1ccccc1)C2` [Atropine oxide]: the “IC50 of cell viability” value is more than 46 µM.

With `C[N@+]1([O-])[C@@H]2CC[C@@H]1C[C@@H](OC(=O)[C@@H](CO)c1ccccc1)C2` [Atropine-N-oxide hydrochloride], the “IC50 of cell viability” value is more than 46 µM.

For the compound `CN1[C@@H]2CC[C@H]1CC(OC(=O)C(CO)c1ccccc1)C2` (stereo partly specified) [Atropine], the “IC50 of cell viability” value was more than 46 µM.

As for `CNC(=O)c1ccccc1Sc1ccc2c(/C=C/c3ccccn3)n[nH]c2c1` [Axitinib], the “IC50 of cell viability” value is more than 46 µM.

On to `O=C(CCCN1CCN2CCCC2C1)c1ccc(F)cc1` (stereo unspecified) [Azabuperona], for which the “IC50 of cell viability” value is more than 46 µM.

For the compound `O=C(CCN1CCN2CCCC2C1)N1c2ccccc2Sc2ccc(Cl)cc21` (stereo unspecified) [Azaclorzina], the “IC50 of cell viability” value was more than 46 µM.

Consider `Clc1ccc(C2(Cn3cncn3)OCCO2)c(Cl)c1` [Azaconazole], for which the “IC50 of cell viability” value was more than 46 µM.

For the compound `OC(c1ccccc1)(c1ccccc1)C1CCNCC1` [Azacyclonol], the “IC50 of cell viability” value was more than 46 µM.

Regarding `O=C(CCCN1CCN(c2ccccn2)CC1)c1ccc(F)cc1` [Azaperone], the “IC50 of cell viability” value is more than 46 µM.

As to `CCC[C@@H]1C(=O)N2N(C1=O)\C(=N/C3=C2C=C(C)C=C3)N(C)C` [Azapropazone], the “IC50 of cell viability” value is more than 46 µM.

For `CC(=O)OC[C@H]1O[C@H]([C@H](OC(C)=O)[C@@H]1OC(C)=O)N2\N=C/C(=O)NC2=O` [Azaribine], the “IC50 of cell viability” value is more than 46 µM.

`CN1CC\C(CC1)=C2/C3=CC=CC=C3CCC4=CC=CN=C24` [Azatadine]: the “IC50 of cell viability” value is more than 46 µM.

On to `Cn1cnc([N+](=O)[O-])c1Sc1ncnc2nc[nH]c12` [Azathioprine], for which the “IC50 of cell viability” value was more than 46 µM.

Regarding `CC[C@H]1OC(=O)[C@H](C)[C@@H](O[C@H]2C[C@@](C)(OC)[C@@H](O)[C@H](C)O2)[C@H](C)[C@@H](O[C@@H]2O[C@H](C)C[C@H](N(C)C)[C@H]2O)[C@](C)(O)C[C@@H](C)CN(C)[C@H](C)[C@@H](O)[C@]1(C)O` [Azithromycin], the “IC50 of cell viability” value was more than 46 µM.

On to `[Na+].CC1(C)S[C@H]2[C@H](NC(=O)[C@@H](NC(=O)N3CCNC3=O)C4=CC=CC=C4)C(=O)[N@]2[C@H]1C([O-])=O` [Azlocillin sodium salt], for which the “IC50 of cell viability” value is more than 46 µM.

On to `[O-]/[N+](=N/c1ccccc1)c1ccccc1` [Azoxybenzene], for which the “IC50 of cell viability” value is more than 46 µM.

Consider `CO/C=C(/C(=O)OC)c1ccccc1Oc1cc(Oc2ccccc2C#N)ncn1` [Azoxystrobin], for which the “IC50 of cell viability” value was more than 46 µM.

Turning to `C[C@H]1[C@H](NC(=O)/C(=N/OC(C)(C)C(=O)O)c2csc(N)n2)C(=O)N1[S+](=O)([O-])O` [Aztreonam], the “IC50 of cell viability” value is more than 46 µM.

For `C=CCN1CCc2nc(N)sc2CC1` [B-HT 920], the “IC50 of cell viability” value was more than 46 µM.

Take `CCN1CCc2nc(N)oc2CC1.Cl.Cl` [B-HT 933 dihydrochloride]: the “IC50 of cell viability” value was more than 46 µM.

In the case of `NCC(CC(=O)O)c1ccc(Cl)cc1` (stereo unspecified) [BACLOFEN], the “IC50 of cell viability” value is more than 46 µM.

On to `CNC1CCCN(c2c(F)cc3c(=O)c(C(=O)O)cn(C4CC4)c3c2OC)C1` (stereo unspecified) [BALOFLOXACIN HYDRATE], for which the “IC50 of cell viability” value is more than 46 µM.

On to `O=C(O)CCNC(=O)c1ccc(/N=N/c2ccc(O)c(C(=O)O)c2)cc1` [BALSALAZIDE DISODIUM], for which the “IC50 of cell viability” value was more than 46 µM.

For the compound `CCCCCCCCCCCCCCCCCCOCC(O)CO` (stereo unspecified) [BATYL ALCOHOL], the “IC50 of cell viability” value was more than 46 µM.

Regarding `NCC1O[C@@H](O[C@@H]2C(O)[C@H](O[C@H]3OC(CO)C(O)C(N)C3O)[C@@H](N)C[C@H]2N)C(N)C(O)C1O.O=[S+]([O-])(O)O` (stereo partly specified) [BEKANAMYCIN SULFATE], the “IC50 of cell viability” value is more than 46 µM.

For the compound `CCN(CC)CCOC(=O)C(O)(c1ccccc1)c1ccccc1` [BENACTYZINUM], the “IC50 of cell viability” value is more than 46 µM.

Consider `Cn1c(CCCC(=O)O)nc2cc(N(CCCl)CCCl)ccc21` [BENDAMUSTINUM], for which the “IC50 of cell viability” value is more than 46 µM.

For `O=C([O-])COc1nn(Cc2ccccc2)c2ccccc12` [BENDAZAC], the “IC50 of cell viability” value was more than 46 µM.

Turning to `CC(Cc1cccc(C(F)(F)F)c1)NCCOC(=O)c1ccccc1.Cl` (stereo unspecified) [BENFLUOREX HYDROCHLORIDE], the “IC50 of cell viability” value is more than 46 µM.

Take `CC(=O)Nc1ccc(OC(=O)c2ccccc2OC(C)=O)cc1` [BENORILATE]: the “IC50 of cell viability” value was more than 46 µM.

In the case of `CCCCCCCCCCCCCC[N+](C)(C)Cc1ccccc1.O.[Cl-]` [BENZALKONIUM CHLORIDE], the “IC50 of cell viability” value was more than 46 µM.

As to `CN1C2CCC1C(C(=O)O)C(OC(=O)c1ccccc1)C2` (stereo unspecified) [BENZOYLECGONINE], the “IC50 of cell viability” value is more than 46 µM.

As for `O=C(O)CNC(=O)CNC(=O)CNC(=O)CSC(=O)c1ccccc1` [BENZOYLMERCAPTOACETYLGLYCYLGLYCYLGLYCINE (Betiatide)], the “IC50 of cell viability” value was more than 46 µM.

Regarding `CN1C2CCC1CC(OC(c1ccccc1)c1ccccc1)C2.O=[S+]([O-])(O)O` (stereo unspecified) [BENZTROPINE], the “IC50 of cell viability” value is more than 46 µM.

(Values after the supplement of paper PMC3974653.)
